Results: patent US20200138854A1, “Method of Detecting and Quantifying Bile Acid from Saliva” (Ironwood Pharmaceuticals, Inc., priority 2017, published 2020)
“And” between values parts separate entries of the source, which are not always exact repeats. Equal values may be shown once. Read-outs that look alike come from different tables or passages of the source. Each block holds one compound with its values, some of them ahead of it.

Columns and labels:
[1] = Frozen (−20° C.) short-term stability in cholestyramine-treated human saliva
Protocol: Quality control samples for the evaluation of accuracy and precision and for run acceptance were prepared on the day of sample extraction. QC samples prepared in cholestyramine-treated saliva are to be prepared in small volumes for analysis. Stability for these QC samples would be limited to short-term storage (i.e., 2 days) whereas untreated human saliva would be evaluated for long-term storage.
For stability in cholestyramine-treated human saliva, samples were prepared by spiking cholestyramine-treated human saliva with each analyte at the QC-LLOQ, QC-Low, QC-Mid and QC-High levels. The samples were stored in a −20° C. freezer. After 1 day and 2 days of storage, each sample was extracted in replicates of four for analysis.

[2] = Long-term (1 month at −20° C. and −80° C.) stability in untreated human saliva; details: for % Bias QC-High / Difference from Fresh (%) QC-High / Mean concentration QC-High / Concentration QC-High / Mean at Time Zero, Fresh QCs (Batch 34), QC-High / Fresh QCs (Batch 34) Mean at Time Zero, QC-High / % CV QC-High / Concentration after long-term storage / Mean concentration after long-term storage / % Bias / Difference from Fresh (%) / Fresh QCs (Batch 34) Mean at Time Zero: nominal 80.0 ng/mL; for Concentration after long-term storage / Mean concentration after long-term storage: 1 Month; for Concentration after long-term storage / Mean concentration after long-term storage / % Bias / Difference from Fresh (%) / Fresh QCs (Batch 34) Mean at Time Zero: QC-High; for Concentration after long-term storage: individual values, run 35
Protocol: For long-term stability in untreated human saliva, samples were prepared by spiking untreated human saliva with each analyte at the QC-Low and QC-High levels. The samples were stored in a −20° C. freezer and in a −80° C. freezer. After 1 month of storage, each sample was extracted in replicates of three for analysis.
A 100-μL aliquot of sample (calibration standards, quality controls, blanks, and stability samples) was transferred into a 96 well plate, according to a pre-defined layout. […] The plates were covered, vortex-mixed and then centrifuged for 5 minutes at 3200 rpm. Supernatants (350 μL each) were transferred into the corresponding wells of a clean 96 well plate and evaporated to dryness under nitrogen in a Turbovap set to 40° C. The dried residue in each well was reconstituted with 75 μL of 50:50 (v:v) methanol:water.

[3] = nominal 0.500 ng/mL, 1 Day frozen (−20° C.), cholestyramine-treated human saliva
[4] = nominal 0.500 ng/mL, 2 Days frozen (−20° C.), cholestyramine-treated human saliva
[5] = nominal 8.00 ng/mL, 1 Day frozen (−20° C.), cholestyramine-treated human saliva
[6] = nominal 8.00 ng/mL, 2 Days frozen (−20° C.), cholestyramine-treated human saliva
[7] = nominal 80.0 ng/mL, 1 Day frozen (−20° C.), cholestyramine-treated human saliva
[8] = nominal 80.0 ng/mL, 2 Days frozen (−20° C.), cholestyramine-treated human saliva
[9] = 1 month −20° C. storage, untreated human saliva
[10] = 1 month −80° C. storage, untreated human saliva
[11] = nominal 0.500 ng/mL, 1 Day at −20° C.
[12] = nominal 0.500 ng/mL, 2 Days at −20° C.
[13] = nominal 8.00 ng/mL, 1 Day at −20° C.
[14] = nominal 8.00 ng/mL, 2 Days at −20° C.
[15] = nominal 80.0 ng/mL, 1 Day at −20° C.
[16] = nominal 80.0 ng/mL, 2 Days at −20° C.

Short-term stability in cholestyramine-treated human saliva ([1]; human): up to 2 days | Stability in Treated Human Saliva ([1]; human): 2 days | % Bias QC-LLOQ [1, 3]: −1.8% | Mean concentration QC-LLOQ [1, 3]: 0.491 ng/mL | % Bias QC-LLOQ [1, 4]: 8.5% | Mean concentration QC-LLOQ [1, 4]: 0.542 ng/mL | % Bias QC-Mid [1, 5]: −10.3% | Mean concentration QC-Mid [1, 5]: 7.18 ng/mL | % Bias QC-Mid [1, 6]: −8.3% | Mean concentration QC-Mid [1, 6]: 7.34 ng/mL | % Bias QC-High [1, 7]: −7.5% | Mean concentration QC-High [1, 7]: 74.0 ng/mL | % Bias QC-High [1, 8]: −6.7% | Mean concentration QC-High [1, 8]: 74.7 ng/mL | Long-term stability in untreated human saliva ([2]; at 80° C. (sic)): up to 1 month | Stability in Untreated Human Saliva ([2]; at −20° C.): 1 Month | Stability in Untreated Human Saliva ([2]; at −80° C.): 1 Month | % Bias QC-High [2, 9]: −5.9% | Difference from Fresh (%) QC-High [2, 9]: −6.3% | Mean concentration QC-High [2, 9]: 75.3 ng/mL | Concentration QC-High ([2]; 1 month −20° C. storage, untreated human saliva, single determinations): 72.8 ng/mL and 75.6 ng/mL and 77.5 ng/mL | % Bias QC-High [2, 10]: −4.8% | Difference from Fresh (%) QC-High [2, 10]: −5.3% | Mean concentration QC-High [2, 10]: 76.1 ng/mL | Concentration QC-High ([2]; 1 month −80° C. storage, untreated human saliva, single determinations): 78.4 ng/mL and 75.9 ng/mL and 74.1 ng/mL | Mean at Time Zero, Fresh QCs (Batch 34), QC-High ([2]; untreated human saliva, reference for −20° C. storage): 80.4 ng/mL | Mean at Time Zero, Fresh QCs (Batch 34), QC-High ([2]; untreated human saliva, reference for −80° C. storage): 80.4 ng/mL
SMILES: C[C@H](CCC(=O)NCC(=O)O)[C@H]1CC[C@H]2[C@@H]3[C@H](O)C[C@@H]4C[C@H](O)CC[C@]4(C)[C@H]3C[C@H](O)[C@]12C [Glycocholic Acid, Glycocholic acid]
Concentration QC-LLOQ ([1]; nominal 0.500 ng/mL, 1 Day frozen (−20° C.), cholestyramine-treated human saliva, single determinations): 0.485 ng/mL and 0.474 ng/mL and 0.464 ng/mL and 0.541 ng/mL | Concentration QC-LLOQ ([1]; nominal 0.500 ng/mL, 2 Days frozen (−20° C.), cholestyramine-treated human saliva, single determinations): 0.464 ng/mL and 0.541 ng/mL and 0.485 ng/mL and 0.474 ng/mL | Concentration QC-Mid ([1]; nominal 8.00 ng/mL, 1 Day frozen (−20° C.), cholestyramine-treated human saliva, single determinations): 7.20 ng/mL and 7.21 ng/mL and 7.28 ng/mL and 7.01 ng/mL | Concentration QC-Mid ([1]; nominal 8.00 ng/mL, 2 Days frozen (−20° C.), cholestyramine-treated human saliva, single determinations): 7.28 ng/mL and 7.01 ng/mL and 7.20 ng/mL and 7.21 ng/mL | Concentration QC-High ([1]; nominal 80.0 ng/mL, 1 Day frozen (−20° C.), cholestyramine-treated human saliva, single determinations): 73.2 ng/mL and 74.9 ng/mL and 73.6 ng/mL and 74.2 ng/mL | Concentration QC-High ([1]; nominal 80.0 ng/mL, 2 Days frozen (−20° C.), cholestyramine-treated human saliva, single determinations): 73.6 ng/mL and 74.2 ng/mL and 73.2 ng/mL and 74.9 ng/mL

Short-term stability in cholestyramine-treated human saliva [1]: up to 2 days | Stability in Treated Human Saliva [1]: 2 days | % Bias QC-LLOQ [1, 11]: 7.1% | % CV QC-LLOQ [1, 11]: 2.2% | Mean concentration QC-LLOQ ([1]; nominal 0.500 ng/mL, 1 Day at −20° C., n 4): 0.535 ng/mL | % Bias QC-LLOQ [1, 12]: 19.6% | % CV QC-LLOQ [1, 12]: 4.1% | Mean concentration QC-LLOQ ([1]; nominal 0.500 ng/mL, 2 Days at −20° C., n 4): 0.598 ng/mL | % Bias QC-Mid [1, 13]: −5.4% | % CV QC-Mid [1, 13]: 0.9% | Mean concentration QC-Mid ([1]; nominal 8.00 ng/mL, 1 Day at −20° C., n 4): 7.57 ng/mL | % Bias QC-Mid [1, 14]: −1.8% | % CV QC-Mid [1, 14]: 4.0% | Mean concentration QC-Mid ([1]; nominal 8.00 ng/mL, 2 Days at −20° C., n 4): 7.85 ng/mL | % Bias QC-High [1, 15]: −3.3% | % CV QC-High [1, 15]: 2.9% | Mean concentration QC-High ([1]; nominal 80.0 ng/mL, 1 Day at −20° C., n 4): 77.3 ng/mL | % Bias QC-High [1, 16]: −3.8% | % CV QC-High [1, 16]: 3.9% | Mean concentration QC-High ([1]; nominal 80.0 ng/mL, 2 Days at −20° C., n 4): 77.0 ng/mL | Fresh QCs (Batch 34) Mean at Time Zero, QC-High ([2]; reference for −20° C. Storage, untreated human saliva): 84.5 ng/mL | Fresh QCs (Batch 34) Mean at Time Zero, QC-High ([2]; reference for −80° C. Storage, untreated human saliva): 84.5 ng/mL | % Bias QC-High ([2]; −20° C. Storage, 1 month): 1.0% | % CV QC-High ([2]; −20° C. Storage, 1 month): 2.5% | Difference from Fresh (%) QC-High ([2]; −20° C. Storage, 1 month): −4.3% | Mean concentration QC-High ([2]; −20° C. Storage, 1 month, n 3): 80.8 ng/mL | Concentration QC-High ([2]; −20° C. Storage, 1 month, untreated human saliva, Run 35, replicate): 79.1 ng/mL and 83.0 ng/mL and 80.4 ng/mL | % Bias QC-High ([2]; −80° C. Storage, 1 month): 1.0% | % CV QC-High ([2]; −80° C. Storage, 1 month): 4.7% | Difference from Fresh (%) QC-High ([2]; −80° C. Storage, 1 month): −4.3% | Mean concentration QC-High ([2]; −80° C. Storage, 1 month, n 3): 80.8 ng/mL | Concentration QC-High ([2]; −80° C. Storage, 1 month, untreated human saliva, Run 35, replicate): 84.4 ng/mL and 81.2 ng/mL and 76.9 ng/mL
SMILES: C[C@H](CCC(=O)NCCS(=O)(=O)O)[C@H]1CC[C@H]2[C@@H]3[C@H](O)C[C@@H]4C[C@H](O)CC[C@]4(C)[C@H]3CC[C@]12C [Taurochenodeoxycholic Acid, Taurochenodeoxycholic acid]
Concentration QC-LLOQ ([1]; nominal 0.500 ng/mL, 1 Day at −20° C., Run 33, cholestyramine-treated human saliva, replicate): 0.529 ng/mL and 0.542 ng/mL and 0.522 ng/mL and 0.548 ng/mL | Concentration QC-LLOQ ([1]; nominal 0.500 ng/mL, 2 Days at −20° C., Run 33, cholestyramine-treated human saliva, replicate): 0.608 ng/mL and 0.589 ng/mL and 0.569 ng/mL and 0.626 ng/mL | Concentration QC-Mid ([1]; nominal 8.00 ng/mL, 1 Day at −20° C., Run 33, cholestyramine-treated human saliva, replicate): 7.59 ng/mL and 7.63 ng/mL and 7.58 ng/mL and 7.47 ng/mL | Concentration QC-Mid ([1]; nominal 8.00 ng/mL, 2 Days at −20° C., Run 33, cholestyramine-treated human saliva, replicate): 7.42 ng/mL and 8.04 ng/mL and 8.12 ng/mL and 7.83 ng/mL | Concentration QC-High ([1]; nominal 80.0 ng/mL, 1 Day at −20° C., Run 33, cholestyramine-treated human saliva, replicate): 78.3 ng/mL and 79.8 ng/mL and 74.6 ng/mL and 76.6 ng/mL | Concentration QC-High ([1]; nominal 80.0 ng/mL, 2 Days at −20° C., Run 33, cholestyramine-treated human saliva, replicate): 74.4 ng/mL and 78.6 ng/mL and 74.5 ng/mL and 80.3 ng/mL

SMILES: C[C@H](CCC(=O)O)[C@H]1CC[C@H]2[C@@H]3[C@H](O)C[C@@H]4C[C@H](O)CC[C@]4(C)[C@H]3C[C@H](O)[C@]12C [Cholic Acid, Cholic acid]
% Bias ([1]; Storage period 1 Day at −20° C., QC-High, nominal 80.0 ng/mL): −6.7% | % Bias ([1]; Storage period 1 Day at −20° C., QC-LLOQ, nominal 0.500 ng/mL): −0.9% | % Bias ([1]; Storage period 1 Day at −20° C., QC-Mid, nominal 8.00 ng/mL): −5.9% | Mean concentration after frozen (−20° C.) storage ([1]; Storage period 1 Day, QC-High, nominal 80.0 ng/mL, n 4): 74.7 ng/mL | Mean concentration after frozen (−20° C.) storage ([1]; Storage period 1 Day, QC-LLOQ, nominal 0.500 ng/mL, n 4): 0.496 ng/mL | Mean concentration after frozen (−20° C.) storage ([1]; Storage period 1 Day, QC-Mid, nominal 8.00 ng/mL, n 4): 7.53 ng/mL | % Bias ([1]; Storage period 2 Days at −20° C., QC-High, nominal 80.0 ng/mL): −6.2% | % Bias ([1]; Storage period 2 Days at −20° C., QC-LLOQ, nominal 0.500 ng/mL): 12.1% | % Bias ([1]; Storage period 2 Days at −20° C., QC-Mid, nominal 8.00 ng/mL): −3.6% | Mean concentration after frozen (−20° C.) storage ([1]; Storage period 2 Days, QC-High, nominal 80.0 ng/mL, n 4): 75.1 ng/mL | Mean concentration after frozen (−20° C.) storage ([1]; Storage period 2 Days, QC-LLOQ, nominal 0.500 ng/mL, n 4): 0.561 ng/mL | Mean concentration after frozen (−20° C.) storage ([1]; Storage period 2 Days, QC-Mid, nominal 8.00 ng/mL, n 4): 7.72 ng/mL | Concentration after long-term storage ([2]; −20° C. Storage): 72.6 ng/mL and 76.7 ng/mL and 76.0 ng/mL | Mean concentration after long-term storage ([2]; −20° C. Storage, n 3): 75.1 ng/mL | Concentration after long-term storage ([2]; −80° C. Storage): 79.6 ng/mL and 77.9 ng/mL and 77.2 ng/mL | Mean concentration after long-term storage ([2]; −80° C. Storage, n 3): 78.2 ng/mL | % Bias ([2]; 1 month, −20° C. Storage): −6.1% | Difference from Fresh (%) ([2]; 1 month, −20° C. Storage): −6.1% | % Bias ([2]; 1 month, −80° C. Storage): −2.2% | Difference from Fresh (%) ([2]; 1 month, −80° C. Storage): −2.2% | Fresh QCs (Batch 34) Mean at Time Zero ([2]; reference for −20° C. Storage): 80.0 ng/mL | Fresh QCs (Batch 34) Mean at Time Zero ([2]; reference for −80° C. Storage): 80.0 ng/mL

Short-term stability in cholestyramine-treated human saliva ([1]; human): up to 2 days | Stability in Treated Human Saliva ([1]; human): 2 days
SMILES: C[C@H](CCC(=O)O)[C@H]1CC[C@H]2[C@@H]3CC[C@@H]4C[C@H](O)CC[C@]4(C)[C@H]3CC[C@]12C [Lithocholic Acid, Lithocholic acid]
